Results from ChEMBL document CHEMBL1201862, “PubChem BioAssay data set” (2004).
Calls of active or inactive are those of the source.

What was measured:
[1] = target: T1, Hexokinase HKDC1 (Homo sapiens, UniProt Q2TB90); assay: activation of HKDC1 glucose phosphorylation – biochemical, W721R variant, dose response (AID 504730); type: functional
T1 sequence (Q2TB90 whole entry): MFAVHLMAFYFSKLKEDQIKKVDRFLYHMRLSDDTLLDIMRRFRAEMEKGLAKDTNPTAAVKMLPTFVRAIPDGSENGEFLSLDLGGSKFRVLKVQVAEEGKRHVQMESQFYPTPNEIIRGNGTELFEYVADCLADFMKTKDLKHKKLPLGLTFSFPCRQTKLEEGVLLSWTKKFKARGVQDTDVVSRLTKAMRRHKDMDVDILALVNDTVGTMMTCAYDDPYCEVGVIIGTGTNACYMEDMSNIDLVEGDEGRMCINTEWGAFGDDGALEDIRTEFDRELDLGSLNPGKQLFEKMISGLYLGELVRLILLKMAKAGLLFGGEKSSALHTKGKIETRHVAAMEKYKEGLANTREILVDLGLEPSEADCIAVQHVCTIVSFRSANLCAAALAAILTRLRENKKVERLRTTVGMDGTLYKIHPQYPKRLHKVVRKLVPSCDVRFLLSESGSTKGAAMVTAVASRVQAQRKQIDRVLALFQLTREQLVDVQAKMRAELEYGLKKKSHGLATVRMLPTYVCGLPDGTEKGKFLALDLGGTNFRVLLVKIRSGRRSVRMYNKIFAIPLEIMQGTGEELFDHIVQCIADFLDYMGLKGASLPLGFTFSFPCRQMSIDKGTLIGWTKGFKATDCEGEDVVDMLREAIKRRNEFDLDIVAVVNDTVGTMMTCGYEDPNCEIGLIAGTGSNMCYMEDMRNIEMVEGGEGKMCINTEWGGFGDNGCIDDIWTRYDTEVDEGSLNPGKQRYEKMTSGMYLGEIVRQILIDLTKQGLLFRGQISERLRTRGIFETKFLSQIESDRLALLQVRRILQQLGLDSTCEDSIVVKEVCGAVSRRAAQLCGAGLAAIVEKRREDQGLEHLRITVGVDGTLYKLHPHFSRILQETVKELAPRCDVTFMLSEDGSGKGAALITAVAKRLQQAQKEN

[2] = target: T2, Hexokinase-1 (Homo sapiens, UniProt P19367); assay: HK1 enzyme activation by HKDC1 hits – biochemical, selectivity assay for HKDC1 activator project, dose response (AID 504762); type: functional
T2 sequence (P19367 whole entry): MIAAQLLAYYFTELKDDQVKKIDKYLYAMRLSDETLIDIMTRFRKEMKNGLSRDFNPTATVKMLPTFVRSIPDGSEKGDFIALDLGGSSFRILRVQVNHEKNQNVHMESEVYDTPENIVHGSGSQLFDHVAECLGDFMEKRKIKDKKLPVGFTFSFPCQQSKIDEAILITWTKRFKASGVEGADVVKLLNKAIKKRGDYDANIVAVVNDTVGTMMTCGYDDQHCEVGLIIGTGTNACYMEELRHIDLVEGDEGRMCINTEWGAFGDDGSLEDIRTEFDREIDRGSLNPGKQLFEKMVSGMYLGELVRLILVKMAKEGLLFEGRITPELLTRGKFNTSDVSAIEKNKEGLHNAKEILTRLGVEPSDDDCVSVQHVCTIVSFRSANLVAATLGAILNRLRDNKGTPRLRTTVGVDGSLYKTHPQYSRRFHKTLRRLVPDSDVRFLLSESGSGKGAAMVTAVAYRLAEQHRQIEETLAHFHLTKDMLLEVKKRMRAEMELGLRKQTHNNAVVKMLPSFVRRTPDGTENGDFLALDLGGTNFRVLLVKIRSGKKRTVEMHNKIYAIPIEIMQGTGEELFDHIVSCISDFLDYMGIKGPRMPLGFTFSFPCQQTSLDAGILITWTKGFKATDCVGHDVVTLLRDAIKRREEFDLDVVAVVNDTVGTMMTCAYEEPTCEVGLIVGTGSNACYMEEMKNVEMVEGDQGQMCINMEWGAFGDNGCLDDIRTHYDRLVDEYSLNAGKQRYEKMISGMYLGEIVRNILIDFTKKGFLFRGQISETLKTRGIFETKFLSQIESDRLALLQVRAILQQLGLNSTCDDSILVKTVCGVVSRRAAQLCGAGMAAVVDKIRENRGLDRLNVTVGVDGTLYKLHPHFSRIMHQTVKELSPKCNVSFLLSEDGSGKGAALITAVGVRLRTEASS

[3] = target: T3, Tyrosine-protein phosphatase non-receptor type 7 (Homo sapiens, UniProt P35236); assay: inhibition of hematopoietic tyrosine phosphatase HePTP – biochemical, set 2, SAR follow-up (AID 449736); type: functional
T3 sequence (P35236 whole entry): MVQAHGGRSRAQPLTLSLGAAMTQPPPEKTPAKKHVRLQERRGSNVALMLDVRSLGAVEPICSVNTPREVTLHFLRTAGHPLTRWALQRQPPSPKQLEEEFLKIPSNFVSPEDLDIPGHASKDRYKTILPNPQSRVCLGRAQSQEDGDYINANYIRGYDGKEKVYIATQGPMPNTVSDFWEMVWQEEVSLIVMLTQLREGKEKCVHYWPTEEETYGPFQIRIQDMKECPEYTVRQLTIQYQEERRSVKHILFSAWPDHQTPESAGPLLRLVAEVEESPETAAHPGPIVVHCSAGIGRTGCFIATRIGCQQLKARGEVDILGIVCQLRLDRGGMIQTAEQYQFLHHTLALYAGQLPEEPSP

[4] = target: T4, Dual specificity protein phosphatase 6 (Rattus norvegicus, UniProt Q64346); type: functional;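 further: confirmatory in vitro dose-response testing of MKP-3 inhibition; recombinant His-tagged MKP-3 made in E. coli BL21 with OMFP substrate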
T4 sequence (Q64346 whole entry): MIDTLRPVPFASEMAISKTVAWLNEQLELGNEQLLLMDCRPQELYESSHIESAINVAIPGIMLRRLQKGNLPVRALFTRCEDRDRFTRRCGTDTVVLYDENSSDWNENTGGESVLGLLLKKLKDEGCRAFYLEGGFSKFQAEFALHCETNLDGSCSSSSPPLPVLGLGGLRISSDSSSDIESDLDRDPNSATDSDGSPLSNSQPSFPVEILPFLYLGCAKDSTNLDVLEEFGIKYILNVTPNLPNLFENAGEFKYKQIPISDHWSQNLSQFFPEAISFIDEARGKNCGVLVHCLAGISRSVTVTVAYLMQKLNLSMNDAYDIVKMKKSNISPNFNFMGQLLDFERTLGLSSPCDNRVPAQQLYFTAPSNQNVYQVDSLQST

[5] = target: T5, Tyrosine-protein phosphatase non-receptor type 22 (Homo sapiens, UniProt Q9Y2R2); assay: inhibition of lymphoid tyrosine phosphatase LYP – biochemical, pCAP fluorogenic substrate, fluorescence, set 3, SAR follow-up (AID 449727); type: functional
T5 sequence (Q9Y2R2 whole entry): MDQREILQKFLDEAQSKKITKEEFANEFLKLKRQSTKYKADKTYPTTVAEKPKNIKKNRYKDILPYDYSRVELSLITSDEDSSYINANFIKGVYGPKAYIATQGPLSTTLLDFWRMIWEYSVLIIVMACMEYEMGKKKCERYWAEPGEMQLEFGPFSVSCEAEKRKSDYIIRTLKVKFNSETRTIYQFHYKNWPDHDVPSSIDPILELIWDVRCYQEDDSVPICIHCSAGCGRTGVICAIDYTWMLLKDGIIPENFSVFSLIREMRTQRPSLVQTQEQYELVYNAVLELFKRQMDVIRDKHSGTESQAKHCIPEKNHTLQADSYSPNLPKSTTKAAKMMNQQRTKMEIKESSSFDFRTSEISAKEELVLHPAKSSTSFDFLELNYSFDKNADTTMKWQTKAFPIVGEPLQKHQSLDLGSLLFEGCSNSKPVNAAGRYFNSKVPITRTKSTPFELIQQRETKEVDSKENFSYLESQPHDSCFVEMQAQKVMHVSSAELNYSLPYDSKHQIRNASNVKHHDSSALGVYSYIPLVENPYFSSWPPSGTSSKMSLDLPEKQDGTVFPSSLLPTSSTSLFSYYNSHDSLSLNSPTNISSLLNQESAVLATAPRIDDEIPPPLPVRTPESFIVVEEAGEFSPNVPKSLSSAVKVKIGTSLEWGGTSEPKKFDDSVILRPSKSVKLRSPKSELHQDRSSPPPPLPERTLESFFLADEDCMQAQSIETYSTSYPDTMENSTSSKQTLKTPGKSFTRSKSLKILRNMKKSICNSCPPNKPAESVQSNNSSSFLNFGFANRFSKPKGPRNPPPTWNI

[6] = target: T5, Tyrosine-protein phosphatase non-receptor type 22; assay: SAR LYP1 Fluorescent Assay using OMFP substrate for In Vitro dose response studies - Set 3. [Related pubchem assays (depositor defined):AID1779, AID1784, AID2140, AID2686]; type: functional
[7] = target: T6, Dual specificity protein phosphatase 3 (Homo sapiens, UniProt P51452); assay: SAR VHR1 Fluorescent Assay for In Vitro dose response studies. [Related pubchem assays (depositor defined):AID1654, AID1661, AID1878, AID1992, AID2004, AID2070, AID2085]; type: functional
[8] = target: T6, Dual specificity protein phosphatase 3; assay: SAR VHR1 absorbance Assay for In Vitro dose response studies. [Related pubchem assays (depositor defined):AID1654, AID1661, AID1878, AID1992, AID2004]
[9] = target: T3, Tyrosine-protein phosphatase non-receptor type 7; assay: redox-active compounds inhibiting HePTP phosphatase – biochemical, fluorescence, mechanism study (AID 2068); type: functional
[10] = target: Tyrosine-protein phosphatase non-receptor type 12 (Homo sapiens, UniProt Q05209); assay: SAR Selectivity Analysis of small molecule inhibitors of PEST using pCAP in a fluorescence assay. [Related pubchem assays (depositor defined):AID1779, AID1784, AID2135]; type: functional
[11] = target: T7, Cannabinoid receptor 2 (Homo sapiens, UniProt P34972); assay: SAR analysis of agonists of the Cannabinoid Receptor 2 using an Image-Based Assay - Set 3. [Related pubchem assays (depositor defined):AID2013, AID2026]; type: functional
[12] = target: T8, G-protein coupled receptor 35 (Homo sapiens, UniProt Q9HC97); assay: SAR analysis of Agonists of the GPR35 Receptor using an Image-Based Assay - Set 4. [Related pubchem assays (depositor defined):AID2013, AID2026]; type: functional
[13] = target: T8, G-protein coupled receptor 35; assay: SAR analysis of Antagonists of the GPR35 Receptor using an Image-Based Assay - Set 6. [Related pubchem assays (depositor defined):AID2013, AID2026]; type: functional
[14] = target: T9, Cannabinoid receptor 1 (Homo sapiens, UniProt P21554); assay: SAR analysis of antagonists of the Cannabinoid Receptor 1 using an Image-Based Assay - Set 4. [Related pubchem assays (depositor defined):AID2013, AID2026]; type: functional
[15] = target: T9, Cannabinoid receptor 1; assay: SAR analysis of agonists of the Cannabinoid Receptor 1 using an Image-Based Assay - Set 4. [Related pubchem assays (depositor defined):AID2013, AID2026]; type: functional
[16] = target: T7, Cannabinoid receptor 2; assay: SAR analysis of antagonists of the Cannabinoid Receptor 2 using an Image-Based Assay - Set 3. [Related pubchem assays (depositor defined):AID2013, AID2026]; type: functional
[17] = target: T10, Probable nicotinate-nucleotide adenylyltransferase (Staphylococcus aureus (strain N315), UniProt P65502); type: functional, Staphylococcus aureus subsp. aureus N315;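 on IC50 Mean: confirmatory dose-response retesting of NadD inhibitor hits first found in an ultra-high-throughput screen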
[18] = target: T10, Probable nicotinate-nucleotide adenylyltransferase; type: functional, Staphylococcus aureus subsp. aureus N315; details: read-out: IC50_Mean
[19] = target: G-protein coupled receptor 55 (Homo sapiens, UniProt Q9Y2T6); assay: SAR Analysis of Selective Antagonists of GPR55 using an Image-Based Assay - Set 4. [Related pubchem assays (depositor defined):AID2013, AID2026]; type: functional;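 further: antagonism of response to 5 µM lysophosphatidylinositol agonist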
Chain of G-protein coupled receptor 55 (Q9Y2T6 whole entry): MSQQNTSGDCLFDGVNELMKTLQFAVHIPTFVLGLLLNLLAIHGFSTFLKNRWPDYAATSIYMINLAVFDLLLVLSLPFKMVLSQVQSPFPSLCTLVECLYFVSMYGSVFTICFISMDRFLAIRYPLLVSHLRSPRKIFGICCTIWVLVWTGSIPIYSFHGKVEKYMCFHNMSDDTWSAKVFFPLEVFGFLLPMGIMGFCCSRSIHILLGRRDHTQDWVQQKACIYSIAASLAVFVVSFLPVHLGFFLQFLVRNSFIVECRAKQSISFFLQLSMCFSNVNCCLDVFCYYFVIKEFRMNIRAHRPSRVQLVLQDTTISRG

T6 sequence (P51452 whole entry): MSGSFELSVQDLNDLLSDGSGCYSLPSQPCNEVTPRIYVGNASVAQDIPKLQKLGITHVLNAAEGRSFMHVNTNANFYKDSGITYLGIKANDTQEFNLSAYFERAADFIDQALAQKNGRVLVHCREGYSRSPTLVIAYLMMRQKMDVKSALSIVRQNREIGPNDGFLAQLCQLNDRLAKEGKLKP
T9 sequence (P21554 whole entry): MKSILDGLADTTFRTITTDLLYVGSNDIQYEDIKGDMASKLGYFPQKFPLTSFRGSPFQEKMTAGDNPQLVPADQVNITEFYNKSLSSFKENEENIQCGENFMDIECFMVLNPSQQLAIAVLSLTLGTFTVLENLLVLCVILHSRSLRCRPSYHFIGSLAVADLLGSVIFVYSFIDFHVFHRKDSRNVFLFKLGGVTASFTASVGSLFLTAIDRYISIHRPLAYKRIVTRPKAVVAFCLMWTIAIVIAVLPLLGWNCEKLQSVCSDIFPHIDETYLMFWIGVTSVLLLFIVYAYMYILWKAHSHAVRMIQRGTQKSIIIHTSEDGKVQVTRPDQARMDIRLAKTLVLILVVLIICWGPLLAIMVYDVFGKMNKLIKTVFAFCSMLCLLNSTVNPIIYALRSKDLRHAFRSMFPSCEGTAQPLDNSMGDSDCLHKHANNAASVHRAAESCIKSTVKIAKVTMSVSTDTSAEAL
T10 sequence (P65502 whole entry): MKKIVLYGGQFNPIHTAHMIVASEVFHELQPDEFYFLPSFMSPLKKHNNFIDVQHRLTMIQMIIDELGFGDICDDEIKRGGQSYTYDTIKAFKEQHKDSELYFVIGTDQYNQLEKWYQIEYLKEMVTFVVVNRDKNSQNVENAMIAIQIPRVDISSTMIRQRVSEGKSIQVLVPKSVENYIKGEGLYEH
T8 sequence (Q9HC97 whole entry): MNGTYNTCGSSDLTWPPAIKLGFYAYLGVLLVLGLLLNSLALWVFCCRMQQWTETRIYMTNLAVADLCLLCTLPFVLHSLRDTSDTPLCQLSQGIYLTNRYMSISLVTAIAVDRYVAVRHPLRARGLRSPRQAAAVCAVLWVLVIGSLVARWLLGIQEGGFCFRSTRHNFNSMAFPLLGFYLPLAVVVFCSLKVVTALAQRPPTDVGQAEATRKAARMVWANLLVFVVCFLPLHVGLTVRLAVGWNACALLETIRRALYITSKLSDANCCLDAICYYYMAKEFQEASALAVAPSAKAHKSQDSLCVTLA
T7 sequence (P34972 whole entry): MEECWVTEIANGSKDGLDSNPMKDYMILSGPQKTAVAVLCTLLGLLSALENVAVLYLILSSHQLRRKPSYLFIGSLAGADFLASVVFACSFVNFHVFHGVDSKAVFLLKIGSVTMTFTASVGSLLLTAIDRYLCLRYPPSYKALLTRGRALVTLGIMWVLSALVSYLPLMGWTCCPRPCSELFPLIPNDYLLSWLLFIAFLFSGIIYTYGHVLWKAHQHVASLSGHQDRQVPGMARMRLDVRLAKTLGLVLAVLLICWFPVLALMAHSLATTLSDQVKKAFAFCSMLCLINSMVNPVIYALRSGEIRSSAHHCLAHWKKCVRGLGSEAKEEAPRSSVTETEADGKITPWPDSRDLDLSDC
Chain of Tyrosine-protein phosphatase non-receptor type 12 (Q05209 whole entry): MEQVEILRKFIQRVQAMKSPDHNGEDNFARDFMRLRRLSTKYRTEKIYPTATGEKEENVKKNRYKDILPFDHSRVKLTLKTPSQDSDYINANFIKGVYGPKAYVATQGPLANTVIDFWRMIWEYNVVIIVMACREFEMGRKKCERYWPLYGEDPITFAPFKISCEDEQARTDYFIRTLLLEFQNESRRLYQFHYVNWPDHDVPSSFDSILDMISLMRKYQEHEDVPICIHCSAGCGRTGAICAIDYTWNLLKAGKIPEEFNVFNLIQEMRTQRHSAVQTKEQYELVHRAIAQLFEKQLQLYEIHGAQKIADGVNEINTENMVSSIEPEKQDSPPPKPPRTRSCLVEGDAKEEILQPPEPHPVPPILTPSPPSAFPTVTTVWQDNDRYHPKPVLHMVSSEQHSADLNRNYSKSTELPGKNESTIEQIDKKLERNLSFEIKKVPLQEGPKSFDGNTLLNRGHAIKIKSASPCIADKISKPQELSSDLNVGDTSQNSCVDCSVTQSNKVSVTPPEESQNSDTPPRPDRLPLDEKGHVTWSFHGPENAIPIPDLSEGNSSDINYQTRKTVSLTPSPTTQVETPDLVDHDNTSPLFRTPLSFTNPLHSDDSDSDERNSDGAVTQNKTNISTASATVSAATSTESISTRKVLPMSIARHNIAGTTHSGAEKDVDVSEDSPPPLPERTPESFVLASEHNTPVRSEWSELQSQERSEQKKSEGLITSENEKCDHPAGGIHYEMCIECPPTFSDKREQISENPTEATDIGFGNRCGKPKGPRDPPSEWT

O=S(=O)(c1ccc(NC(=S)NN=C(Cc2ccccc2)Cc2ccccc2)cc1)N1CCOCC1
inactive: EC50 [2] > 80 µM
active: EC50 [1] 7.65 µM

O=NNc1nc2ccccc2n1Cc1ccccc1
active: EC50 [1] 18.3 µM
inactive: EC50 [2] > 80 µM

CSc1ccc(OCC(=O)O)cc1C
inactive: IC50 [3] > 100 µM | IC50 [4] > 99 µM | IC50 [5] > 100 µM | IC50 [6] > 100 µM | IC50 [7] > 99 µM | IC50 [8] > 100 µM | IC50 [9] > 100 µM | IC50 [10] > 100 µM

COc1ccc(-c2cc(C(=O)Nc3ccc(S(=O)(=O)Nc4onc(C)c4C)cc3)c3ccccc3n2)cc1
inactive: EC50 [11] > 32 µM | EC50 [12] > 32 µM | IC50 [13] > 32 µM | IC50 [14] 16.9 µM | EC50 [15] > 32 µM | IC50 [16] > 32 µM | IC50 [19] 18.2 µM
active: IC50 [17] 5.33 µM | IC50 [18] 17.3 µM
